From US11642413B2, “Compounds for degrading Tau protein aggregates and uses thereof” (Aprinoia Therapeutics Limited, priority 2019, dated 2023)

Target: Tau aggregates in P301L-Tau-FL-GFP HEK293 cells (Homo sapiens (Human), UniProt P10636, P301L)
Assay: Tau degradation assay (APNmAb005 ELISA-based Tau aggregation assay)
Assay type: cell-based
Conditions: 1 μM compound
Protocol: (A). Cell-based model of Tau inclusion formation: Six month old rTg4510 mouse brain lysates were used as the source of tau seeds, prepared as described in Example 26 above. P301L-Tau-FL-GFP HEK293 cells represent HEK293 cells express full-length human tau T40 (2N4R) carrying the P301L mutation with a GFP tag (P301L-Tau-FL-GFP). 1×10^6 of P301L-Tau-FL-GFP HEK293 cells were cultured on a 6-well plate in culture medium containing DMEM/F-12 (Gibco) supplemented with 10% fetal bovine serum (FBS) (Gibco), 1% Penicillin-Streptomycin (Gibco) and 0.5 mg/ml geneticin (Thermo Fisher Scientific) for 24 hours to reach 70-90% confluency, indicating the cells were ready for transfection. 50 μg of 6-month-old rTg4510 mouse brain lysate was diluted in 400 μL of serum free medium and mixed with 16 μL of lipofectamine 3000 reagent (Thermo Fisher Scientific) diluted in 400 μl of serum free medium. A solution mixture of rTg4510 brain lysate and lipofectamine 3000 was incubated at room temperature for 25 mins. The culture media were removed, and then a solution mixture of rTg4510 lysate and lipofectamine 3000 was added to the cells for transfection. The solution mixture was incubated at room temperature for five hours, followed by medium change to 10% fetal bovine serum (FBS). […]

Sequence of Tau aggregates in P301L-Tau-FL-GFP HEK293 cells (P10636 other isoform, or with tags, fused parts or gaps P301L): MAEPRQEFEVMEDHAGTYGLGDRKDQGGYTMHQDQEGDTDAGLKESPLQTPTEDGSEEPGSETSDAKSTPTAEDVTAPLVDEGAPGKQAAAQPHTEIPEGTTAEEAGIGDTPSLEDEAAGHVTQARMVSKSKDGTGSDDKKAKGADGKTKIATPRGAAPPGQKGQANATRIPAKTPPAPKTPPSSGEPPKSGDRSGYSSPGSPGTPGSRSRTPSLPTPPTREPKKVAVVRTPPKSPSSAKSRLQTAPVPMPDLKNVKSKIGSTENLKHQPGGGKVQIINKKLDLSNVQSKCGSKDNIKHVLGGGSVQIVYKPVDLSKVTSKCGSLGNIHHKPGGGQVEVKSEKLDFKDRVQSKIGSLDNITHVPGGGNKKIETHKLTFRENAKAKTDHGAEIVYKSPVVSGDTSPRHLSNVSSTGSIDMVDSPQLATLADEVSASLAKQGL

CN(C)c1ccc(-c2ccc(-c3cn4cccc(OCCOCCOc5ccc6c(c5)CN(C5CCC(=O)NC5=O)C6=O)c4n3)cc2)cn1 (stereo not shown) [Compound 162842]
Optical Density (O.D.) 450 value decrease compared to vehicle: 20%
